Experimental data from patent US20250276029A1, “ANTIBACTERIAL AND ANTIOXIDANT COMPOSITION CONTAINING GRAPE CALLUS CULTURE MEDIUM AS ACTIVE INGREDIENT” (INGR INCORPORATED, priority 2021, published 2025).

Tests used:
[1] = system: P. acnes 3320 (KCTC 3320); assay: MBC analysis for acne bacteria, P. acnes 3320; assay type: cell-based, Propionibacterium acnes; conditions: for MBC, concentration of highest growth inhibition effect: P. acnes 3320, 72-hour; for MBC, concentration of highest growth inhibitory effect: P. acnes 3320, 48 hr
Method: (§1) To confirm the antibacterial effect of grape callus culture solution on acne bacteria, Propionibacterium acnes (KCTC 3314, KCTC 3320, KCTC 5012) was cultured in RCM (Reinforced Clostridial Medium) at 37° C., anaerobic conditions. The Minimum Bactericidal Concentration (MBC) is an indicator measuring the bactericidal properties of an antibacterial substance, and the grape callus culture extract of the present invention was diluted to concentrations ranging […], and the minimum concentration inhibiting the growth of three strains of P. acnes was determined. Specifically, the minimum bactericidal concentration was measured using a plate measuring the MIC of <3-1>.

[2] = system: P. acnes 3314 (KCTC 3314); assay: MIC for acne bacteria, P. acnes 3314; assay type: cell-based, Propionibacterium acnes; conditions: P. acnes 3314, 72 hours, anaerobic
Method: (§2) To confirm the antibacterial effect of grape callus culture solution on acne bacteria, Propionibacterium acnes (KCTC 3314, KCTC 3320, KCTC 5012) was cultured in RCM (Reinforced Clostridial Medium) at 37° C., anaerobic conditions. MIC is an index for measuring bacteriostatic characteristics of antibacterial substances, and after diluting the grape callus culture solution of the present invention to a concentration between […], the minimum concentration that inhibits the growth of three kinds of P. acnes was examined. Specifically, three kinds of P. acnes cultured in <3-1> were incubated in an incubator at 37° C. for 72 hours under anaerobic conditions in 5 ml of RCM liquid medium. In addition, a master plate was prepared at 8 concentrations by diluting ½ from the highest concentration to DW in 96 well plates. 50 μl of each diluted sample was then transferred to another 96-well plate. […] To measure the MIC, 0 hour OD600 nm was measured with a Microplate Reader. Then, after incubating the 96-well plate in 72-hour 37° C., incubation under anaerobic conditions, measuring OD600 nm for 72 hours with a Microplate Reader, subtracting the 0-hour OD value from the 72-hour OD value, the growth of three P. acnes according to control and sample concentration was compared, and antibacterial activity was confirmed through OD value comparison.

[3] = DPPH analysis (antioxidant effect); conditions: 500 μg/ml
Method: DPPH analysis was performed to confirm the antioxidant effect of grape callus culture solution. Specifically, 0.2 mM DPPH (1,1-Diphenyl-2-picryhydrazyl) solution was prepared using 80% methanol, and then 180 μl of DPPH and 20 μl of the sample were well mixed and reacted at room temperature for 10 minutes, and then absorbance was measured with an ELISA reader at 517 nm. On the other hand, the sample was diluted based on epsilon-Viniferin content and treated in a well for comparison with Viniferin. In addition, the control method used DPPH reagent in the dilution solvent of the sample instead of the sample. Ascorbic acid was treated as a positive control.

[4] = system: P. acnes 5012 (KCTC 5012); assay: MIC for acne bacteria, P. acnes 5012; assay type: cell-based, Propionibacterium acnes; conditions: P. acnes 5012, 72 hours, anaerobic
Method: as §2

[5] = system: P. acnes 3320 (KCTC 3320); assay: MIC for acne bacteria, P. acnes 3320; assay type: cell-based, Propionibacterium acnes; conditions: P. acnes 3320, 72 hours, anaerobic
Method: as §2

[6] = system: P. acnes 3314 (KCTC 3314); assay: MBC analysis for acne bacteria, P. acnes 3314; assay type: cell-based, Propionibacterium acnes; conditions: for MBC, concentration of highest growth inhibition effect: P. acnes 3314, 72-hour; for MBC, concentration of highest growth inhibitory effect: P. acnes 3314, 48 hr
Method: as §1

[7] = system: P. acnes 5012 (KCTC 5012); assay: MBC analysis for acne bacteria, P. acnes 5012; assay type: cell-based, Propionibacterium acnes; conditions: for MBC, concentration of highest growth inhibition effect: P. acnes 5012, 72-hour; for MBC, concentration of highest growth inhibitory effect: P. acnes 5012, 48 hr
Method: as §1

[8] = system: Raw264.7 (murine macrophage); assay: MTT assay cytotoxicity, Raw264.7 cells; assay type: cell-based; conditions: mouse, 24 h
Method: (§3) MTT assay was performed using MNT-1, Raw264.7 cells to confirm the cytotoxicity of grape callus cultures, epsilon-Viniferin and delta-Viniferin. Specifically, Raw264.7 (murine macrophage) was incubated at 37° C., 5% CO2 in DMEM (High glucose) medium with 10% FBS and 1% gentamicine added, and MNT-1 (human melanoma cell) was incubated at 37° C., 5% CO2 in DMEM/MEM (High glucose) medium with 20% FBS and 1% gentamicine added. MNT-1 (10^4 cell/well) and Raw264.7 (2×10^4 cell/well) were each incubated in 96 wells, the samples were diluted with medium and treated in each well. After 24 hours, the MTT solution was treated at a concentration of 100 μg/mL and reacted at 37° C., 5% CO2 incubator for 1 hour. All cultures were then removed, 100 μl of acid-isopropanol was added to each well, and absorbance was measured with an ELISA reader at 570 nm. In addition, the sample was diluted based on epsilon-Viniferin content and treated in a well for comparison with Viniferin.

[9] = system: MNT-1 (human melanoma cell); assay: MTT assay cytotoxicity, MNT-1 cells; assay type: cell-based; conditions: 24 h
Method: as §3

[10] = system: P. acnes 3320; assay: Disc diffusion test; assay type: cell-based, Propionibacterium acnes; conditions: for clear zone diameter, 1: column 1; for clear zone diameter, 2: column 2
Method: The disc diffusion test is an antibacterial agent sensitivity test method of bacteria, and if there is an antibacterial effect, a clear zone is formed around the disk paper, and the antibacterial ability can be measured through the degree of clear zone formation. Specifically, P. acnes 3320 was incubated in 5 ml of RCM liquid medium in an incubator at 37° C. for 72 hours under anaerobic conditions. Then, the bacteria diluted with 5×10^5 1×10^6 were moistened with a cotton swab and evenly smeared on RCM agar medium. The disk paper was placed on an agar plate, the disk paper was moistened with a sample of the stock solution, and then incubated in a 72-hour 37° C. incubator under anaerobic conditions, and then the clear zone size was measured using a Vernier Caliper.

| MIC, average concentration that inhibits growth [2] | MIC, average concentration that inhibits growth [4] | MIC, average concentration that inhibits growth [5] | Compound | MBC, concentration of highest growth inhibition effect [1] | MBC, concentration of highest growth inhibitory effect [1] | radical scavenging activity (DPPH) compared to the control group [3] | MBC, concentration of highest growth inhibition effect [6] | MBC, concentration of highest growth inhibitory effect [6] | MBC, concentration of highest growth inhibition effect [7] | MBC, concentration of highest growth inhibitory effect [7] | concentration showing no cytotoxicity (MTT) [8] [ng/mL] | concentration showing no cytotoxicity (MTT) [9] [ng/mL] | clear zone diameter, Average ([10]; ε-viniferin 5 μg) [mm] | clear zone diameter, 1 ([10]; ε-viniferin 5 μg) [mm] | clear zone diameter, 2 ([10]; ε-viniferin 5 μg) [mm] | clear zone diameter, Average ([10]; ε-viniferin 10 μg) [mm] | clear zone diameter, 1 ([10]; ε-viniferin 10 μg) [mm] | clear zone diameter, 2 ([10]; ε-viniferin 10 μg) [mm] |
| --- | --- | --- | --- | --- | --- | --- | --- | --- | --- | --- | --- | --- | --- | --- | --- | --- | --- | --- |
| did not show growth inhibition | did not show growth inhibition | did not show growth inhibition | Oc1ccc(C2Oc3ccc(/C=C/c4cc(O)cc(O)c4)cc3C2c2cc(O)cc(O)c2)cc1 (stereo not drawn) [delta-Viniferin, trans-δ-Viniferin] | did not show growth inhibition | did not show growth inhibition | approximately 25% | did not show growth inhibition | did not show growth inhibition | did not show growth inhibition | did not show growth inhibition | – | – | – | – | – | – | – | – |
| did not show growth inhibition | did not show growth inhibition | did not show growth inhibition | Oc1ccc(/C=C/c2cc(O)cc3c2C(c2cc(O)cc(O)c2)C(c2ccc(O)cc2)O3)cc1 (stereo not drawn) [epsilon-Viniferin, trans-ε-viniferin] | did not show growth inhibition | did not show growth inhibition | approximately 25% | did not show growth inhibition | did not show growth inhibition | did not show growth inhibition | did not show growth inhibition | ≤ 20000 | ≤ 20000 | 0 | 0 | 0 | 0 | 0 | 0 |
